Experimental data from PMC12624727, “Benzodeazaoxaflavin Sirtuin Inhibitors Inhibit Schistosoma mansoni Sirt2 and Cause Phenotypic Changes and Lethality in Schistosomula and Adult Worm Stages” (ACS Infectious Diseases, 2025).
Like-named read-outs stand apart in the source and are kept apart here.

How the values were obtained:
[1] = system: hSirt2; settings: cited from earlier work
[2] = molecular target: SmSirt2 (Schistosoma mansoni, UniProt T1VXA1); experiment: In vitro SmSirt2 inhibition assay, homogeneous fluorescence-based, ZMAL substrate; type: biochemical; settings: for IC50: read-out: IC50 SmSirt2, ZMAL substrate
Method: We first improved the synthetic method to obtain most of the BDFs analogues 1–12 (Figure ), and we tested them against recombinant SmSirt2 using a homogeneous, fluorescent-based in vitro assay with (Z)-(Ac)-Lys-7-amino-4-methylcoumarin (ZMAL) as the substrate.
The BDF4 compounds 1–12 were tested for their inhibitory activity against SmSirt2 using a fluorescence-based assay with ZMAL as the substrate. Their activity against hSirt2 has been previously reported. ,
For the screening of compounds 1–12, a homogeneous fluorescence-based assay previously described by some of us was used to determine SmSirt2 activity.

[3] = system: S. mansoni (Puerto Rican) worm pairs; experiment: Egg laying by adult worm pairs (Puerto Rican strain); type: cell-based, Schistosoma mansoni; settings: % of DMSO control
[4] = system: adult S. mansoni (Puerto Rican strain) worm pairs; settings: for reduction of viability of adult worm pairs: concentration not given, Puerto Rican strain; for viability of adult worm pairs after recovery: both, Puerto Rican, Schistosoma mansoni
[5] = system: S. mansoni (Puerto Rican) worm pairs; experiment: Worm pairing of adult worm pairs (Puerto Rican strain); type: cell-based, Schistosoma mansoni; settings: % of DMSO control
[6] = system: S. mansoni newly transformed schistosomula (NTS), Liberian strain; experiment: NTS (Liberian strain) in vitro viability assay; type: cell-based, Schistosoma mansoni; settings: for percentage of reduction of NTS viability, 72 h: SD in brackets; for IC50: 72 h, Liberian strain
[7] = system: adult S. mansoni (Liberian strain) worm pairs; experiment: Adult worm (Liberian strain) in vitro viability assay; type: cell-based, Schistosoma mansoni; settings: for adult worms' percentage of viability reduction, 72 h: SD in brackets; for IC50: Schistosoma mansoni, 72 h, Liberian strain
[8] = system: cytochrome c release in S. mansoni (Puerto Rican strain) worms; experiment: Western blot of cytosolic cytochrome c in worm extracts; type: cell-based, Schistosoma mansoni; settings: 1 μM, 24 h (legend of Figure 5)
Method: To determine if the Sirt2 inhibitors trigger apoptosis through the cytochrome c pathway, we examined cytochrome c release from mitochondria.
5 Effects of selected Sirt2 inhibitors on cytosolic cytochrome c expression. Representative immunoblots of cytosolic protein fractions extracted from S. mansoni adult worm pairs are shown. The worms were treated with the indicated Sirt2 inhibitors (10 μM) for 48 h. DMSO (vehicle), TSA (1 μM, 24 h), a HDAC pan-inhibitor, and salermide (Sal 25 μM, 48 h), a Sirt1/Sirt2 inhibitor, were used as controls. The α-tubulin signal was used for normalization. Quantitation of cytochrome c relative to the vehicle-treated sample is shown.
Ten pairs of adult parasites were treated with selected Sirt inhibitors for either 24 or 48 h at partially lethal and sublethal concentrations. The concentrations of compounds were chosen based on the viability curve. Positive controls in the experiments included TSA, a pan-HDAC inhibitor, and salermide, a hSirt1/2 inhibitor, while DMSO (vehicle) served as negative control. Parasites were lysed in a 0.5% Triton PBS buffer by strokes, and the lysates were then centrifuged to collect the soluble fractions (cytosol). The insoluble fractions were extracted with 0.25 N HCl at +4 °C for 18 h, followed by neutralization with 1/10 volume of 2 N NaOH. Samples were analyzed using 15% SDS-PAGE and Western blotting. […]

[9] = ref footnote b (reference number not given)

Chain of SmSirt2 (T1VXA1 entry or part of it): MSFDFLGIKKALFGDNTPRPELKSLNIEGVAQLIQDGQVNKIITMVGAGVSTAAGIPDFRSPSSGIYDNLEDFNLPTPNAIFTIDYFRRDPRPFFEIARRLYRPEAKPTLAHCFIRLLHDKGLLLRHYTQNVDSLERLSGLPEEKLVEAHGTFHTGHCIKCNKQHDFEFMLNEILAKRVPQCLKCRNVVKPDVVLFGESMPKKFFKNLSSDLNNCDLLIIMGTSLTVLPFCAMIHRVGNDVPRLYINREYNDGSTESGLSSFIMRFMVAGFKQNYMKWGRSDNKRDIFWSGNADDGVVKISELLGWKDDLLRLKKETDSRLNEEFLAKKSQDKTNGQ

| Structure (SMILES) | IC50 [1, 9] | % egg laying ([3]; 1 μM, 24 h, single experiment) | % egg laying ([3]; 1 μM, 48 h, single experiment) | % egg laying ([3]; 1 μM, 72 h, single experiment) | % egg laying ([3]; 10 μM, 24 h, SD in brackets) | % egg laying ([3]; 10 μM, 48 h, SD in brackets) | % egg laying ([3]; 10 μM, 72 h, SD in brackets) | % egg laying ([3]; 20 μM, 24 h, SD in brackets) | % egg laying ([3]; 20 μM, 48 h, SD in brackets) | % worm pairing ([5]; 1 μM, 24 h, single experiment) | % worm pairing ([5]; 1 μM, 48 h, single experiment) | % worm pairing ([5]; 1 μM, 72 h, single experiment) | percentage of reduction of NTS viability, 72 h ([6]; 0.1 μM) | percentage of reduction of NTS viability, 72 h ([6]; 1 μM) | percentage of reduction of NTS viability, 72 h ([6]; 10 μM) | percentage of reduction of NTS viability, 72 h ([6]; 20 μM) | IC50 ([6]; Schistosoma mansoni) | adult worms' percentage of viability reduction, 72 h ([7]; 20 μM) | IC50 [7] | IC50 [2] | other results |
| --- | --- | --- | --- | --- | --- | --- | --- | --- | --- | --- | --- | --- | --- | --- | --- | --- | --- | --- | --- | --- | --- |
| C=CCn1c(=O)nc2oc3ccc4ccccc4c3cc-2c1=O [Compound 4, 10-Allyl-9H-benzo[5,6]chromeno[2,3-d]pyrimidine-9,11(10H)-dione] | 10.8 ± 0.3 µM | 72% | 68% | 95% | 61(6) % | 82 (12) % | 79 (19) % | 11 (6) % | 7 (5) % | 100% | 100% | 100% | 20 (0) % | 100 (0) % | 100 (0) % | 100 (0) % | ~0.1 µM | 94.4 (0) % | 2.03 µM |  | inhibition at 50 µM [2]: 53.9%; reduction of viability of adult worm pairs ([4]; 24 h): approximately 80%; viability of adult worm pairs after recovery ([4]; 72 h): 50%; % worm pairing ([5]; 10 μM, 24 h, SD in brackets): 90 (14) %; % worm pairing ([5]; 10 μM, 48 h, SD in brackets): 90 (14) %; % worm pairing ([5]; 10 μM, 72 h, SD in brackets): 90 (14) %; % worm pairing ([5]; 20 μM, 24 h, SD in brackets): 0 (0) %; % worm pairing ([5]; 20 μM, 48 h, SD in brackets): 20 (0) %; % worm pairing ([5]; 20 μM, 72 h, SD in brackets): 60 (0) %; IC50 [6]: 0.12 µM; adult worms' percentage of viability reduction, 72 h ([7]; 1 μM): 40.7 (3.7) % |
| CCCn1c(=O)nc2oc3ccc4ccccc4c3cc-2c1=O [Compound 5, 10-Propyl-9H-benzo[5,6]chromeno[2,3-d]pyrimidine-9,11(10H)-dione] | 12.5 ± 0.5 µM | 104% | 94% | 144% | 55 (15) % | 73 (33) % | 75 (7) % | 12 (16) % | 11 (14) % | 100% | 100% | 100% | 24 (0) % | 100 (0) % | 100 (0) % | 100 (0) % | ~0.1 µM | 91.7 (2.8) % | 3.35 µM | 8 ± 0.7 µM | % egg laying ([3]; 20 μM, 72 h, SD in brackets): 13 (10) %; reduction of viability of adult worm pairs ([4]; 24 h): approximately 80%; viability of adult worm pairs after recovery ([4]; 72 h): 40%; % worm pairing ([5]; 10 μM, 24 h, SD in brackets): 90 (14) %; % worm pairing ([5]; 10 μM, 48 h, SD in brackets): 100 (14) %; % worm pairing ([5]; 10 μM, 72 h, SD in brackets): 100 (14) %; % worm pairing ([5]; 20 μM, 24 h, SD in brackets): 0 (0) %; % worm pairing ([5]; 20 μM, 48 h, SD in brackets): 10 (14) %; % worm pairing ([5]; 20 μM, 72 h, SD in brackets): 0 (0) %; IC50 [6]: 0.12 µM; adult worms' percentage of viability reduction, 72 h ([7]; 1 μM): 25.9 (3.7) % |
| O=c1nc2oc3ccc4ccccc4c3cc-2c(=O)[nH]1 [Compound 1, 7-Oxa-8,10-Diazabenzo[a]anthracene-9,11-dione] |  | 79% | 90% | 116% | 93 (27) % | 97 (14) % | 122 (14) % | 56 (22) % | 75 (19) % | 100% | 100% | 100% | 16.7 (0) % | 90 (1.7) % | 100 (0) % | 100 (0) % | ~0.2 µM | 85.7 (7.2) % | > 10 µM | 3.8 ± 0.3 µM | IC50 ([1]; ref footnote a (reference number not given)): > 50 µM; selectivity toward SmSIRT2 over the human isoform ([2]; SmSirt2 vs hSirt2): selectively active against the parasite enzyme; % egg laying ([3]; 20 μM, 72 h, SD in brackets): 109 (47) %; reduction of viability of adult worm pairs ([4]; 72 h): 20%; % worm pairing ([5]; 10 μM, 24 h, SD in brackets): 100 (0) %; % worm pairing ([5]; 10 μM, 48 h, SD in brackets): 100 (0) %; % worm pairing ([5]; 10 μM, 72 h, SD in brackets): 100 (0) %; % worm pairing ([5]; 20 μM, 24 h, SD in brackets): 100 (0) %; % worm pairing ([5]; 20 μM, 48 h, SD in brackets): 100 (0) %; % worm pairing ([5]; 20 μM, 72 h, SD in brackets): 100 (0) %; IC50 [6]: 0.25 µM; adult worms' percentage of viability reduction, 72 h ([7]; 10 μM): 27.5 (2) % |
| CCn1c(=O)nc2oc3ccc4ccccc4c3cc-2c1=O [Compound 3, 10-Ethyl-9H-benzo[5,6]chromeno[2,3-d]pyrimidine-9,11(10H)-dione] | 30 ± 1.2 µM |  |  |  |  |  |  |  |  |  |  |  |  | 40 (0) % | 100 (0) % | 100 (0) % | 1.03 µM | 80.3 (5.4) % | > 10 µM | 12.6 ± 2.2 µM | adult worms' percentage of viability reduction, 72 h ([7]; 10 μM): 49 (0) % |
| CCCCn1c(=O)nc2oc3ccc4ccccc4c3cc-2c1=O [Compound 6, 10-Butyl-9H-benzo[5,6]chromeno[2,3-d]pyrimidine-9,11(10H)-dione] | 16.9 ± 0.8 µM |  |  |  |  |  |  |  |  |  |  |  |  |  |  | 34 (1) % |  |  |  | 7.8 ± 0.8 µM |  |
| CC(/C=C/C(=O)NO)=C\[C@@H](C)C(=O)c1ccc(N(C)C)cc1 [TSA] |  |  |  |  |  |  |  |  |  |  |  |  |  |  |  |  |  |  |  |  | cytosolic cytochrome c level [8]: increased levels of cytochrome c |
| Cn1c(=O)nc2oc3ccc4ccccc4c3cc-2c1=O [Compound 2, 10-Methyl-9H-benzo[5,6]chromeno[2,3-d]pyrimidine-9,11(10H)-dione] | 11.2 ± 0.3 µM |  |  |  |  |  |  |  |  |  |  |  | 20.8 (0) % | 43.8 (2.1) % | 61.5 (3.8) % | 85.7 (3.6) % | 1.5 µM | 82.1 (3.6) % | > 10 µM | 2.3 ± 0.1 µM | adult worms' percentage of viability reduction, 72 h ([7]; 10 μM): 37.3 (3.9) % |
| O=C1NC(=O)N(c2ccccc2)C(=O)/C1=C/c1c(O)ccc2ccccc12 [Compound 10] |  |  |  |  |  |  |  |  |  |  |  |  |  |  |  |  |  |  |  |  | % inhibition at 50 μM hSirt2 ([1]; 50 μM, ref footnote a (reference number not given)): 0.7% ^a; inhibition of hSirt2 in words ([1]; ref not printed (previously reported)): failed to inhibit; inhibition at 50 µM [2]: 3.5%; inhibition of SmSirt2 in words [2]: failed to inhibit |
